In ChEMBL document CHEMBL1145321, “Evaluation of indenoisoquinoline topoisomerase I inhibitors using a hollow fiber assay” (2006):

These compounds were tested on Panel NCI-60 (60 carcinoma cell lines) (assay: Antiproliferative activity against human NCI60 cell line measured as mean graph midpoint).
Assay type: functional

SMILES	Activity
COc1cc2c3c(n(C)c(=O)c2cc1OC)-c1cc2c(cc1/C3=C/CCCI)OCO2	8.49 µM
Cl.NCCCn1c2c(c3ccccc3c1=O)C(=O)c1cc3c(cc1-2)OCO3	0.251 µM
O=C1c2cc3c(cc2-c2c1c1ccccc1c(=O)n2CCCNCCCO)OCO3	15.5 µM
COc1cc2c3c(n(Cc4ccccc4)c(=O)c2cc1OC)-c1cc2c(cc1C3=O)OCO2	41.6 µM
O=C1c2ccccc2-c2c1c1ccccc1c(=O)n2CCCCCO	14.4 µM
Cn1c2c(c3ccccc3c1=O)C(=O)c1cc3c(cc1-2)OCO3	45 µM
COc1cc2c3c(n(CCN)c(=O)c2cc1OC)-c1cc2c(cc1C3=O)OCO2.Cl	0.338 µM
Cl.NCCCCn1c2c(c3ccccc3c1=O)C(=O)c1ccccc1-2	0.156 µM
COc1cc2c(cc1[N+](=O)[O-])C(=O)N(CCCBr)[C@@H]1c3cc4c(cc3C(=O)[C@H]21)OCO4	0.016 µM
COc1cc2c(cc1OC)[C@H]1C(=O)c3cc4c(cc3[C@H]1N(CCCBr)C2=O)OCO4	0.69 µM
COc1cc2c(cc1OC)[C@H]1C(=O)c3cc4c(cc3[C@H]1N(Cc1ccccc1)C2=O)OCO4	1.18 µM
[N-]=[N+]=NCCCn1c2c(c3ccc([N+](=O)[O-])cc3c1=O)C(=O)c1cc3c(cc1-2)OCO3	0.098 µM
Cl.NCCCn1c2c(c3ccccc3c1=O)C(=O)c1ccccc1-2	0.315 µM
CCCCn1c2c(c3cc(OC)c(OC)cc3c1=O)C(=O)c1cc3c(cc1-2)OCO3	41.6 µM
COc1cc2c3c(n(CCCNCCN)c(=O)c2cc1OC)-c1cc2c(cc1C3=O)OCO2.Cl.Cl	0.347 µM
COc1cc2c3c(n(CCCCO)c(=O)c2cc1OC)-c1cc2c(cc1C3=O)OCO2	3.2 µM
Cl.c1c2c(cc3c1OCO3)-c1ncc3cc4c(cc3c1C2)OCO4	0.271 µM
COc1cc2c3c(n(CCCN)c(=O)c2cc1OC)-c1cc2c(cc1C3=O)OCO2.Cl	0.16 µM
COc1cc2c3c(n(CCCNCCNCCN)c(=O)c2cc1OC)-c1cc2c(cc1C3=O)OCO2.Cl	2.4 µM
Cl.O=C1c2ccccc2-c2c1c1ccccc1c(=O)n2CCCNCCCn1ccnc1	1.01 µM
Cl.NCCCn1c2c(c3ccc([N+](=O)[O-])cc3c1=O)C(=O)c1ccccc1-2	0.146 µM
COc1cc2c3c(n(C)c(=O)c2cc1OC)-c1cc2c(cc1C3=O)OCO2	20 µM
CC[C@@]1(O)C(=O)OCc2c1cc1n(c2=O)Cc2cc3ccccc3nc2-1 [CAMPTOTHECIN]	0.0405 µM
CC(=O)O[C@H]1C(=O)[C@@]2(C)[C@H]([C@H](OC(=O)c3ccccc3)[C@]3(O)C[C@H](OC(=O)[C@H](O)[C@@H](NC(=O)c4ccccc4)c4ccccc4)C(C)=C1C3(C)C)[C@]1(OC(C)=O)CO[C@@H]1C[C@@H]2O [PACLITAXEL]	0.0253 µM
CC[C@]1(O)C[C@@H]2CN(CCc3c([nH]c4ccccc34)[C@@](C(=O)OC)(c3cc4c(cc3OC)N(C)[C@H]3[C@@](O)(C(=O)OC)[C@H](OC(C)=O)[C@]5(CC)C=CCN6CC[C@]43[C@@H]65)C2)C1.O=S(=O)(O)O [VINBLASTINE SULFATE]	0.025 µM
